Assay results reported in patent publication US20190185417A1, “NOVEL ANTIBIOTICS” (priority 2016, published 2019).

How the values were obtained:
Test in all cases: MIC by broth microdilution
Type in all cases: cell-based
Details in all cases: Table 2, Example 2
[1] = system: Haemophilus influenzae (ATCC 49247)
Procedure: (§1) The antibacterial potency of the test article(s) was measured using the in vitro broth microdilution assay under assay conditions described by the Clinical and Laboratory Standards Institute. […] The test substance was dissolved in 100% DMSO (unless stated below), suspended completely by sonication or vortexing, diluted by 2-fold serial titrations in the same vehicle, for a total of 11 test concentrations. A 4 μL aliquot of each dilution was added to 196 μL of broth medium seeded with the organism suspension in wells of a 96 well plate (bacterial count: 2−8×10^5 colony forming units/mL final). The final volume was 200 μL in each well and the final DMSO concentration was 2 percent. Following incubation, the test plates were visually examined and wells were scored for growth or complete growth inhibition to define the minimum inhibitory concentration. Each test substance was evaluated in duplicate and the results below are the duplicate test values. Vehicle-control and an active reference agent were used as blank and positive controls, respectively.

[2] = system: Klebsiella pneumoniae (ATCC 43816)
Procedure: as §1, with “DMSO,” for “DMSO (unless stated below),”, “incubation for 1 day at 36° C.,” for “incubation,”, “were reported as” for “below are”, “respectively. Microorganisms tested were Acinetobacter baumannii (ATCC 17978), Enterococcus faecalis (ATCC 29212), Enterococcus faecium VanA (ATCC 700221), Escherichia coli (ATCC 25922), Escherichia coli efflux defective DEL-tolC (JW5503), Heamophilus influenzae (ATCC 49247), Klebsiella pneumoniae (ATCC 43816), Pseudomonas aeruginosa (ATCC 27853), Pseudomonas aeruginosa MDR (NTUH-974), Staphylococcus aureus (ATCC 29213), Staphylococcus aureus MRSA (ATCC 33591) and Streptococcous pneumoniae (ATCC 46919). H. influenzae was grown in Haemophilus Test Medium and S. pneumoniae was grown in cation adjusted Muller-Hinton Broth II with 5% lysed horse blood. All other microorganisms were grown in cation adjusted Muller-Hinton Broth II.” for “respectively.”
as §1

[3] = system: Pseudomonas aeruginosa (ATCC 27853)
Procedure: as §1, with “DMSO,” for “DMSO (unless stated below),”, “incubation for 1 day at 36° C.,” for “incubation,”, “were reported as” for “below are”, “respectively. Microorganisms tested were Acinetobacter baumannii (ATCC 17978), Enterococcus faecalis (ATCC 29212), Enterococcus faecium VanA (ATCC 700221), Escherichia coli (ATCC 25922), Escherichia coli efflux defective DEL-tolC (JW5503), Heamophilus influenzae (ATCC 49247), Klebsiella pneumoniae (ATCC 43816), Pseudomonas aeruginosa (ATCC 27853), Pseudomonas aeruginosa MDR (NTUH-974), Staphylococcus aureus (ATCC 29213), Staphylococcus aureus MRSA (ATCC 33591) and Streptococcous pneumoniae (ATCC 46919). H. influenzae was grown in Haemophilus Test Medium and S. pneumoniae was grown in cation adjusted Muller-Hinton Broth II with 5% lysed horse blood. All other microorganisms were grown in cation adjusted Muller-Hinton Broth II.” for “respectively.”
as §1

[4] = system: Escherichia coli (ATCC 25922)
Procedure: as §1, with “DMSO,” for “DMSO (unless stated below),”, “incubation for 1 day at 36° C.,” for “incubation,”, “were reported as” for “below are”, “respectively. Microorganisms tested were Acinetobacter baumannii (ATCC 17978), Enterococcus faecalis (ATCC 29212), Enterococcus faecium VanA (ATCC 700221), Escherichia coli (ATCC 25922), Escherichia coli efflux defective DEL-tolC (JW5503), Heamophilus influenzae (ATCC 49247), Klebsiella pneumoniae (ATCC 43816), Pseudomonas aeruginosa (ATCC 27853), Pseudomonas aeruginosa MDR (NTUH-974), Staphylococcus aureus (ATCC 29213), Staphylococcus aureus MRSA (ATCC 33591) and Streptococcous pneumoniae (ATCC 46919). H. influenzae was grown in Haemophilus Test Medium and S. pneumoniae was grown in cation adjusted Muller-Hinton Broth II with 5% lysed horse blood. All other microorganisms were grown in cation adjusted Muller-Hinton Broth II.” for “respectively.”
as §1

[5] = system: Acinetobacter baumannii (ATCC 17978)
Procedure: as §1, with “DMSO,” for “DMSO (unless stated below),”, “incubation for 1 day at 36° C.,” for “incubation,”, “were reported as” for “below are”, “respectively. Microorganisms tested were Acinetobacter baumannii (ATCC 17978), Enterococcus faecalis (ATCC 29212), Enterococcus faecium VanA (ATCC 700221), Escherichia coli (ATCC 25922), Escherichia coli efflux defective DEL-tolC (JW5503), Heamophilus influenzae (ATCC 49247), Klebsiella pneumoniae (ATCC 43816), Pseudomonas aeruginosa (ATCC 27853), Pseudomonas aeruginosa MDR (NTUH-974), Staphylococcus aureus (ATCC 29213), Staphylococcus aureus MRSA (ATCC 33591) and Streptococcous pneumoniae (ATCC 46919). H. influenzae was grown in Haemophilus Test Medium and S. pneumoniae was grown in cation adjusted Muller-Hinton Broth II with 5% lysed horse blood. All other microorganisms were grown in cation adjusted Muller-Hinton Broth II.” for “respectively.”
as §1

[6] = system: Escherichia coli, efflux defective DEL-tolC (JW5503)
Procedure: as §1, with “DMSO,” for “DMSO (unless stated below),”, “incubation for 1 day at 36° C.,” for “incubation,”, “were reported as” for “below are”, “respectively. Microorganisms tested were Acinetobacter baumannii (ATCC 17978), Enterococcus faecalis (ATCC 29212), Enterococcus faecium VanA (ATCC 700221), Escherichia coli (ATCC 25922), Escherichia coli efflux defective DEL-tolC (JW5503), Heamophilus influenzae (ATCC 49247), Klebsiella pneumoniae (ATCC 43816), Pseudomonas aeruginosa (ATCC 27853), Pseudomonas aeruginosa MDR (NTUH-974), Staphylococcus aureus (ATCC 29213), Staphylococcus aureus MRSA (ATCC 33591) and Streptococcous pneumoniae (ATCC 46919). H. influenzae was grown in Haemophilus Test Medium and S. pneumoniae was grown in cation adjusted Muller-Hinton Broth II with 5% lysed horse blood. All other microorganisms were grown in cation adjusted Muller-Hinton Broth II.” for “respectively.”
as §1

[7] = system: Pseudomonas aeruginosa, MDR (NTUH-974)
Procedure: as §1, with “DMSO,” for “DMSO (unless stated below),”, “incubation for 1 day at 36° C.,” for “incubation,”, “were reported as” for “below are”, “respectively. Microorganisms tested were Acinetobacter baumannii (ATCC 17978), Enterococcus faecalis (ATCC 29212), Enterococcus faecium VanA (ATCC 700221), Escherichia coli (ATCC 25922), Escherichia coli efflux defective DEL-tolC (JW5503), Heamophilus influenzae (ATCC 49247), Klebsiella pneumoniae (ATCC 43816), Pseudomonas aeruginosa (ATCC 27853), Pseudomonas aeruginosa MDR (NTUH-974), Staphylococcus aureus (ATCC 29213), Staphylococcus aureus MRSA (ATCC 33591) and Streptococcous pneumoniae (ATCC 46919). H. influenzae was grown in Haemophilus Test Medium and S. pneumoniae was grown in cation adjusted Muller-Hinton Broth II with 5% lysed horse blood. All other microorganisms were grown in cation adjusted Muller-Hinton Broth II.” for “respectively.”
as §1

| SMILES | MIC [1] [µg/mL] | MIC [2] [µg/mL] | MIC [3] [µg/mL] | MIC [4] [µg/mL] | MIC [5] [µg/mL] | MIC [6] [µg/mL] | MIC [7] [µg/mL] |
| --- | --- | --- | --- | --- | --- | --- | --- |
| N#Cc1ccc(/C=C/c2cc(/C=C/c3ccc(C#N)cc3)cc(/C=C/c3ccc(C#N)cc3)c2)cc1 [Compound 3] | >128 | >128 | >128 | >128 | >128 | >128 | >128 |
| N#Cc1ccc(CCc2cc(CCc3ccc(C#N)cc3)cc(CCc3ccc(C#N)cc3)c2)cc1 [Compound 4 (TSB064)] | >32.0 | >32.0 | >32.0 | >32.0 | >32.0 | >32.0 | >32.0 |
| CN(C)C(=O)c1ccc(CCc2cc(CCc3ccc(C(=O)N(C)C)cc3)cc(CCc3ccc(C(=O)N(C)C)cc3)c2)cc1 [Compound 5 (TSB032)] | >32.0 | >32.0 | >32.0 | >32.0 | >32.0 | >32.0 | >32.0 |
| NC(=O)c1ccc(CCc2cc(CCc3ccc(C(N)=O)cc3)cc(CCc3ccc(C(N)=O)cc3)c2)cc1 [Compound 6 (TSB030)] | >32.0 | >32.0 | >32.0 | >32.0 | >32.0 | >32.0 | >32.0 |
